Structures are written as SMILES.

Data on four compounds can be found in US20240309342A1, “QUORUM QUENCHING ENZYME, AND METHODS OF USING SAME” (MIGAL GALILEE RESEARCH INSTITUTE LTD., priority 2021, published 2024).

The experiment relates to moLRP (marine origin Lactonase Related Protein), putative AHL lactonase of the PTE-Like-Lactonase (PLL) family from marine metagenomes, recombinant with 6×His …. Briefly: AHL lactonase activity of purified moLRP (hydrolysis of N-acyl homoserine lactones, Michaelis-Menten kinetics, pH indicator cresol purple). Format: biochemical, marine metagenome (Tara Oceans); MAG of phylum Chloroflexi. The settings on record: hydrolysis of AHLs by moLRP; Table 1; FIG. 3 (C4-HSL): E0=0.4 μM, 27° C.; error = standard deviation, at least three independent measurements.
The term Km denotes the concentration of substrate that gives half-maximal velocity. Usually kcat stands for the maximal rate divided by the concentration of active sites. As for `CCCC(=O)CC(=O)N[C@H]1CCOC1=O` [3-Oxo C6-HSL, N-(3-oxohexanoyl)-L-homoserine lactone], the Michaelis constant (Km) is 150 ± 13 µM and the kcat came out at 1.30 ± 0.10 s⁻¹.
Take `CCCCCC(=O)CC(=O)NC1CCOC1=O` (racemic) [3-Oxo C8-HSL, N-(3-oxooctanoyl)-DL-homoserine lactone]: the Michaelis constant (Km) came to 74.8 ± 11 µM and the kcat was 0.519 ± 0.02 s⁻¹.
The like results for `CCCC(=O)N[C@H]1CCOC1=O` [C4-HSL, N-butyryl-L-homoserine lactone] were, in that order, 96.5 ± 15.3 µM and 1.85 ± 0.11 s⁻¹.
Turning to `CCCCCCC(=O)N[C@H]1CCOC1=O` [C7-HSL, N-heptanoyl-L-homoserine lactone], the Michaelis-Menten constant (Km) was found to be 112 ± 19 µM and the kcat was 0.230 ± 0.02 s⁻¹.
